Data published in patent publication US9169254B2, “Spiroimidazolone derivative” (Chugai Seiyaku Kabushiki Kaisha, priority 2009, dated 2015).

What follows are molecules tested against T1, human PTH1 receptor (Homo sapiens, UniProt Q03431) (assay: In vitro cAMP signal activity in HKRK-B7 cells (LLC-PK1 cells overexpressing the human PTH1 receptor)). Settings: 0.1 µM.
T1 sequence (Q03431 27-593): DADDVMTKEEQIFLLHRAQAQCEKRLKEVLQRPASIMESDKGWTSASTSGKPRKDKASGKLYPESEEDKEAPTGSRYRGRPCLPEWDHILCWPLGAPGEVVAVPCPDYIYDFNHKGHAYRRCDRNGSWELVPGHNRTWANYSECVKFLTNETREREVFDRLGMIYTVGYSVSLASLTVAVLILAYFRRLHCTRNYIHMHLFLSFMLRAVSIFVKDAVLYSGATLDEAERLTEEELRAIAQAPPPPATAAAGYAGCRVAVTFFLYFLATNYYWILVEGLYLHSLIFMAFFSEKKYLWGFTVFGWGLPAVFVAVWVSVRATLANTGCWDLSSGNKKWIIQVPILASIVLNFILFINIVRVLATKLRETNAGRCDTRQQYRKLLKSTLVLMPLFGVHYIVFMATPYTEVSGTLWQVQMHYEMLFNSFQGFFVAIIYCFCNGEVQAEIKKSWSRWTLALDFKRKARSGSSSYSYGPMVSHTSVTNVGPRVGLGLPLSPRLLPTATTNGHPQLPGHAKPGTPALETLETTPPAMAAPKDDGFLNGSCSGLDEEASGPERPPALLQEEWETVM
Format: cell-based

Compound	cAMP production activity (%)
Cc1cc(S(=O)(=O)NCC(F)(F)C(F)(F)C(F)(F)F)ccc1CCS(=O)(=O)N1CCC2(CC1)N=C(c1cccc(C(F)(F)F)c1)NC2=O [Compound 667, N-(2,2,3,3,4,4,4-Heptafluoro-butyl)-3-methyl-4-{2-[4-oxo-2-(3-trifluoromethyl-phenyl)-1,3,8-triaza-spiro[4.5]dec-1-ene-8-sulfonyl]-ethyl}-benzenesulfonamide]	40%

Same assay, conditions: HKRK-B7 cells; compound at 1×10^−3 M; cAMP produced as percentage of that produced by hPTH(1-34) at 100 nM

Compound	cAMP production activity (%)
Cc1cc(C(=O)N(C)C)ccc1CCS(=O)(=O)N1CCC2(CC1)N=C(c1cccc(OC(F)(F)F)c1)N/C2=N\O [Compound 900, 4-{2-[4-[(Z)-hydroxyimino]-2-(3-trifluoromethoxy-phenyl)-1,3,8-triaza-spiro[4.5]dec-1-ene-8-sulfonyl]-ethyl}-3,N,N-trimethyl-benzamide]	90%
Cc1cc(CN2CCCC2=O)cc(C)c1CCS(=O)(=O)N1CCC2(CC1)N=C(C1CCC(CCC(F)(F)F)CC1)NC2=O (stereo not drawn) [Compound 776, 8-{2-[2,6-dimethyl-4-(2-oxo-pyrrolidin-1-ylmethyl)-phenyl]-ethanesulfonyl}-2-[4-(3,3,3-trifluoro-propyl)-cyclohexyl]-1,3,8-triaza-spiro[4.5]dec-1-en-4-one]	79%
CN(C)C(=O)CNc1ccc(/C=C/S(=O)(=O)N2CCC3(CC2)N=C(C2CCCCC2)NC3=O)c(C(F)(F)F)c1 [Compound 201, 2-{4-[(E)-2-(2-cyclohexyl-4-oxo-1,3,8-triaza-spiro[4.5]dec-1-ene-8-sulfonyl)-vinyl]-3-trifluoromethyl-phenylamino}-N,N-dimethyl-acetamide]	56%
CCc1cc(NC(C)=O)ccc1CCS(=O)(=O)N1CCC2(CC1)N=C(C1CCC(C)CC1)NC2=O (stereo not drawn) [Compound 752, N-(3-ethyl-4-{2-[2-(4-methyl-cyclohexyl)-4-oxo-1,3,8-triaza-spiro[4.5]dec-1-ene-8-sulfonyl]-ethyl}-phenyl)-acetamide]	79%
O=C1NC(C2CCCCC2)=NC12CCN(S(=O)(=O)CCCc1ccccc1O)CC2 [Compound 318, 2-cyclohexyl-8-[3-(2-hydroxy-phenyl)-propane-1-sulfonyl]-1,3,8-triaza-spiro[4.5]dec-1-en-4-one]	52%
CC(=O)Nc1ccc(CCS(=O)(=O)N2CCC3(CC2)N=C([C@H]2CC[C@@H](CC(F)(F)C(F)(F)F)CC2)NC3=O)c(C)c1 [Compound 1069, N-[3-methyl-4-(2-{4-oxo-2-[4-(2,2,3,3,3-pentafluoro-propyl)-cyclohexyl]-1,3,8-triaza-spiro[4.5]dec-1-ene-8-sulfonyl}-ethyl)-phenyl]-acetamide]	79%
Cc1cc(C(=O)N2CC[C@@H](N(C)C)C2)cc(C)c1/C=C/S(=O)(=O)N1CCC2(CC1)N=C(c1cccc(OC(F)(F)F)c1)NC2=O [Compound 399, 8-{(E)-2-[4-((R)-3-dimethylamino-pyrrolidine-1-carbonyl)-2,6-dimethyl-phenyl]-ethenesulfonyl}-2-(3-trifluoromethoxy-phenyl)-1,3,8-triaza-spiro[4.5]dec-1-en-4-one]	64%
CC(=O)Nc1ccc(CCS(=O)(=O)N2CCC3(CC2)N=C(C2CCC(CC(F)F)CC2)NC3=O)c(C)c1 (stereo not drawn) [Compound 1060, N-[4-(2-{2-[4-(2,2-Difluoro-ethyl)-cyclohexyl]-4-oxo-1,3,8-triaza-spiro[4.5]dec-1-ene-8-sulfonyl}-ethyl)-3-methyl-phenyl]-acetamide]	58%
Cc1cc(C(=O)N2CCC[C@H]2C(F)(F)F)ccc1CCS(=O)(=O)N1CCC2(CC1)N=C(c1cccc(C(F)(F)F)c1)NC2=O [Compound 354, 8-{2-[2-methyl-4-((S)-2-trifluoromethyl-pyrrolidine-1-carbonyl)-phenyl]-ethanesulfonyl}-2-(3-trifluoromethyl-phenyl)-1,3,8-triaza-spiro[4.5]dec-1-en-4-one]	27%
Cc1cc(NC(=O)[C@@H](N)CO)ccc1/C=C/S(=O)(=O)N1CCC2(CC1)N=C(c1cccc(C(F)(F)F)c1)NC2=O [Compound 688, (S)-2-Amino-3-hydroxy-N-(3-methyl-4-{(E)-2-[4-oxo-2-(3-trifluoromethyl-phenyl)-1,3,8-triaza-spiro[4.5]dec-1-ene-8-sulfonyl]-vinyl}-phenyl)-propionamide]	55%
Cc1cc(C(=O)N2CCC(OC[C@H](O)CO)CC2)cc(C)c1CCS(=O)(=O)N1CCC2(CC1)N=C(CCCCCCCCC(F)(F)F)NC2=O [Compound 1184, 8-(2-{4-[4-((R)-2,3-dihydroxy-propoxy)-piperidine-1-carbonyl]-2,6-dimethyl-phenyl}-ethanesulfonyl)-2-(9,9,9-trifluoro-nonyl)-1,3,8-triaza-spiro[4.5]dec-1-en-4-one]	108%
Cc1cc(C(=O)N(C)C)cc(C)c1/C=C/S(=O)(=O)N1CCC2(CC1)N=C(C1CCC(CCC(F)(F)F)CC1)NC2=O (stereo not drawn) [Compound 994, 3,5,N,N-tetramethyl-4-((E)-2-{4-oxo-2-[4-(3,3,3-trifluoro-propyl)-cyclohexyl]-1,3,8-triaza-spiro[4.5]dec-1-ene-8-sulfonyl}-vinyl)-benzamide]	87%
Cc1cc(C(=O)N2CCC(CO)CC2)cc(C)c1/C=C/S(=O)(=O)N1CCC2(CC1)N=C(c1cccc(OC(F)(F)F)c1)NC2=O [Compound 960, 8-{(E)-2-[4-(4-hydroxymethyl-piperidine-1-carbonyl)-2,6-dimethyl-phenyl]-ethenesulfonyl}-2-(3-trifluoromethoxy-phenyl)-1,3,8-triaza-spiro[4.5]dec-1-en-4-one]	84%
Cc1cc(C(=O)N(C)C)ccc1CCS(=O)(=O)N1CCC2(CC1)N=C(COc1ccc(F)cc1)NC2=O [Compound 125, 4-{2-[2-(4-fluoro-phenoxymethyl)-4-oxo-1,3,8-triaza-spiro[4.5]dec-1-ene-8-sulfonyl]-ethyl}-3,N,N-trimethyl-benzamide]	62%
Cc1cc(N(C)C(N)=O)cc(C)c1CCS(=O)(=O)N1CCC2(CC1)N=C(c1cccc(CCCC(F)(F)F)c1)NC2=O [Compound 1359, 1-[3,5-dimethyl-4-(2-{4-oxo-2-[3-(4,4,4-trifluoro-butyl)-phenyl]-1,3,8-triaza-spiro[4.5]dec-1-ene-8-sulfonyl}-ethyl)-phenyl]-1-methyl-urea]	165%
Cc1cc(C(=O)N2CC(O)C2)cc(C)c1CCS(=O)(=O)N1CCC2(CC1)N=C(c1cccc(OC(F)(F)F)c1)NC2=O [Compound 965, 8-{2-[4-(3-hydroxy-azetidine-1-carbonyl)-2,6-dimethyl-phenyl]-ethanesulfonyl}-2-(3-trifluoromethoxy-phenyl)-1,3,8-triaza-spiro[4.5]dec-1-en-4-one]	115%
CC(=O)N(c1cc(C)c(/C=C/S(=O)(=O)N2CCC3(CC2)N=C(C2CCCCC2)NC3=O)c(C)c1)C1CCC(O)CC1 (stereo not drawn) [Compound 709, N-{4-[(E)-2-(2-cyclohexyl-4-oxo-1,3,8-triaza-spiro[4.5]dec-1-ene-8-sulfonyl)-vinyl]-3,5-dimethyl-phenyl}-N-(4-hydroxy-cyclohexyl)-acetamide]	58%
